Literature values, collected in article PMC7904743, “WIDOCK: a reactive docking protocol for virtual screening of covalent inhibitors” (Journal of Computer-Aided Molecular Design, 2021).
Where two headings read alike, the source gives them in different places.

How the values were obtained:
NUDT7 = details: protein labeling at 200 μM; experimental actives if % labeling higher than 50%; cited from earlier work
[1] = thiol reactivity, cited from earlier work
OTUB2 = details: experimental actives if % labeling higher than 50%, cited from earlier work
[2] = natural log of average kinetic rate constant
[3] = natural log of average rate constant
[4] = natural log of average rate constant k
[5] = natural logarithm of average rate constant

SMILES | NUDT7 % labeling (NUDT7) [%] | ln(avg k) [1, 2] | ln(avg k) [1, 3] | OTUB2 % labeling (OTUB2; OTUB2 protein labeling) [%] | ln(avg k) [1, 4] | ln(avg k) [1, 5] | OTUB2 % labeling (OTUB2) [%]
CN(CC1COc2ccccc2O1)C(=O)CCl (stereo not shown) [PCM-0102756, CN(CC1COc2ccccc2O1)C(=O)CCl] | 16 | -15.581 | -15.581 | 6 |  |  | 
Cc1ccc(-n2nc(C)c(NC(=O)CCl)c2C)cc1 [PCM-0102131, Cc1ccc(-n2nc(C)c(NC(=O)CCl)c2C)cc1] | 0 |  |  |  | -16.325 | -16.325 | 0
CC(NC(=O)CCl)C12CC3CC(CC(C3)C1)C2 (stereo not shown) [PCM-0102402, CC(NC(=O)CCl)C12CC3CC(CC(C3)C1)C2] | 7 |  |  |  | -17.061 | -17.061 | 24
CS(=O)(=O)c1ccc(Cl)c(NC(=O)CCl)c1 [PCM-0102220, CS(=O)(=O)c1ccc(Cl)c(NC(=O)CCl)c1] | 5 |  |  |  | -15.663 | -15.663 | 0
CC1(C)CCCN1C(=O)CCl [PCM-0103060, CC1(C)CCCN1C(=O)CCl] | 0 | -15.914 | -15.914 | 0 |  |  | 
C=CCNC(=O)NC(=O)CCl [PCM-0102709, C=CCNC(=O)NC(=O)CCl] | 0 |  | -16.210 |  |  | -16.210 | 0
O=C(CCl)N1CCCC(C(F)(F)F)C1 (stereo not shown) [PCM-0102676, O=C(CCl)N1CCCC(C(F)(F)F)C1] | 14 |  |  |  | -15.616 | -15.616 | 0
O=C(CCl)N1CCN(c2ccc(F)cc2)CC1 [PCM-0102905, O=C(CCl)N1CCN(c2ccc(F)cc2)CC1] | 10 | -15.525 | -15.525 | 7 |  |  | 
O=C(CCl)Nc1ccc(Cl)c([N+](=O)[O-])c1 [PCM-0102316, O=C(CCl)Nc1ccc(Cl)c([N+](=O)[O-])c1] | 28 |  |  |  | -15.463 | -15.463 | 36
O=C(CCl)NCC1CCC1 [PCM-0103065, O=C(CCl)NCC1CCC1] | 0 | -17.462 | -17.462 | 0 |  |  | 
O=C(CCl)Nc1cc(F)ccc1F [PCM-0102284, O=C(CCl)Nc1cc(F)ccc1F] | 0 |  |  |  | -15.941 | -15.941 | 28
O=C(CCl)N1CCN(C(=O)Nc2ccccc2)CC1 [PCM-0102257, O=C(CCl)N1CCN(C(=O)Nc2ccccc2)CC1] | 7 |  |  |  | -15.051 | -15.051 | 0
O=C(CCl)NCC#Cc1cccc(C(F)(F)F)c1 [PCM-0103011, O=C(CCl)NCC#Cc1cccc(C(F)(F)F)c1] | 0 | -16.650 | -16.650 | 84 |  |  | 
CC(NC(=O)CCl)c1ccc2c(c1)CC(=O)N2 (stereo not shown) [PCM-0102816, CC(NC(=O)CCl)c1ccc2c(c1)CC(=O)N2] | 22 | -16.367 | -16.367 | 29 |  |  | 
CC(C)c1nnc(NC(=O)CCl)s1 [PCM-0102928, CC(C)c1nnc(NC(=O)CCl)s1] | 4 | -15.769 | -15.769 | 0 |  |  | 
O=C(CCl)NNC(=O)c1ccc(Cl)cc1 [PCM-0102953, O=C(CCl)NNC(=O)c1ccc(Cl)cc1] | 0 | -17.321 | -17.321 | 18 |  |  | 
CNC(=O)c1cccc(NC(=O)CCl)c1 [PCM-0102113, CNC(=O)c1cccc(NC(=O)CCl)c1] | 0 |  |  |  | -15.492 | -15.492 | 0

SMILES | NUDT7 % labeling (NUDT7) [%] | ln(avg k) [1, 2] | ln(avg k) [1, 3] | OTUB2 % labeling (OTUB2; OTUB2 protein labeling) [%] | ln(avg k) [1, 4] | ln(avg k) [1, 5] | OTUB2 % labeling (OTUB2) [%]
CC(C)(C)c1cc(NC(=O)CCl)n(-c2ccccc2)n1 [PCM-0102536, CC(C)(C)c1cc(NC(=O)CCl)n(-c2ccccc2)n1] | 0 |  |  |  | -15.955 | -15.955 | 14
N#CC1(NC(=O)CCl)CCCCC1 [PCM-0102993, N#CC1(NC(=O)CCl)CCCCC1] | 8 | -16.137 | -16.137 | 0 |  |  | 
Cc1cc(S(N)(=O)=O)cc(NC(=O)CCl)c1C [PCM-0102165, Cc1cc(S(N)(=O)=O)cc(NC(=O)CCl)c1C] | 9 |  |  |  | -16.164 | -16.164 | 12
CC1CCCN(C(=O)C2CCN(C(=O)CCl)CC2)C1 (stereo not shown) [PCM-0102933, CC1CCCN(C(=O)C2CCN(C(=O)CCl)CC2)C1] | 0 | -15.328 | -15.328 | 0 |  |  | 
CC1CCN(C(=O)CCl)C2CCCCC12 (stereo not shown) [PCM-0102831, CC1CCN(C(=O)CCl)C2CCCCC12] | 37 | -15.612 | -15.612 | 0 |  |  | 
O=C(CCl)NCC(=O)N1CCCC1 [PCM-0102391, O=C(CCl)NCC(=O)N1CCCC1] | 0 |  |  |  | -17.246 | -17.246 | 0
O=C(CCl)Nc1ccc(Cl)cc1Cl [PCM-0102914, O=C(CCl)Nc1ccc(Cl)cc1Cl] | 22 | -16.384 | -16.384 | 14 |  |  | 
Cc1ccccc1CN1CCN(C(=O)CCl)CC1 [PCM-0102876, Cc1ccccc1CN1CCN(C(=O)CCl)CC1] | 0 | -15.594 | -15.594 | 0 |  |  | 
N#CC(c1ccccc1)N1CCN(C(=O)CCl)CC1 (stereo not shown) [PCM-0102381, N#CC(c1ccccc1)N1CCN(C(=O)CCl)CC1] | 11 |  |  |  | -15.106 | -15.106 | 0
CC(C)N(CC(F)(F)F)C(=O)CCl [PCM-0102516, CC(C)N(CC(F)(F)F)C(=O)CCl] | 0 |  |  |  | -17.383 | -17.383 | 0
O=C(CCl)NC(=O)Nc1ccc2c(c1)OCO2 [PCM-0102333, O=C(CCl)NC(=O)Nc1ccc2c(c1)OCO2] | 29 |  |  |  | -15.968 | -15.968 | 53
CC1CCCN(C(=O)CCl)C1 (stereo not shown) [PCM-0102867, CC1CCCN(C(=O)CCl)C1] | 0 | -16.989 | -16.989 | 0 |  |  | 
O=C(CCl)NCc1cc(Br)cs1 [PCM-0103050, O=C(CCl)NCc1cc(Br)cs1] | 13 | -16.422 | -16.422 | 84 |  |  | 
O=C(CCl)N=c1sccn1Cc1ccccc1 [PCM-0102469, O=C(CCl)N=c1sccn1Cc1ccccc1] | 0 |  |  |  | -15.583 | -15.583 | 11
CN(C)C(=O)c1cccc(NC(=O)CCl)c1 [PCM-0102345, CN(C)C(=O)c1cccc(NC(=O)CCl)c1] | 10 |  |  |  | -15.488 | -15.488 | 0
CC(C)(C)NC(=O)CN1CCN(C(=O)CCl)CC1 [PCM-0102302, CC(C)(C)NC(=O)CN1CCN(C(=O)CCl)CC1] | 8 |  |  |  | -15.639 | -15.639 | 13
O=C(CCl)Nc1ccccc1F [PCM-0102158, O=C(CCl)Nc1ccccc1F] | 0 |  |  |  | -16.146 | -16.146 | 51
